From publication PMC5298231, “The Malaria Parasite's Lactate Transporter PfFNT Is the Target of Antiplasmodial Compounds Identified in Whole Cell Phenotypic Screens” (PLoS Pathogens, 2017)
Read-outs that look alike come from different tables or passages of the source.

System: erythrocytes infected with 3D7 trophozoites
Format: cell-based, Plasmodium falciparum
Details: 6 μM

COc1ccc2c(c1)OC(O)(C(F)(F)C(F)(F)F)CC2=O (stereo not drawn) [MMV007839]
ESFG log2 ratio (+MMV007839/-MMV007839) (Av 1hr): 0.4045
EVGG log2 ratio (+MMV007839/-MMV007839) (Av 1hr): 0.01776
Erythrose 4-phosphate log2 ratio (+MMV007839/-MMV007839) (Av 1hr): -0.3514
FAD log2 ratio (+MMV007839/-MMV007839) (Av 1hr): -0.08791
FMN log2 ratio (+MMV007839/-MMV007839) (Av 1hr): -0.2425
Farnesyl diphosphate log2 ratio (+MMV007839/-MMV007839) (Av 1hr): -0.0002912
Folate log2 ratio (+MMV007839/-MMV007839) (Av 1hr): -0.2316
Fructose-1-6-bisphosphate log2 ratio (+MMV007839/-MMV007839) (Av 1hr): 1.122
Fructose-6-Phosphate log2 ratio (+MMV007839/-MMV007839) (Av 1hr): 0.08818
GDP log2 ratio (+MMV007839/-MMV007839) (Av 1hr): -0.6846
GDP-mannose log2 ratio (+MMV007839/-MMV007839) (Av 1hr): 0.01571
GMP log2 ratio (+MMV007839/-MMV007839) (Av 1hr): -1.125
GTP log2 ratio (+MMV007839/-MMV007839) (Av 1hr): -0.5732
Geranylgeranyl pyrophosphate log2 ratio (+MMV007839/-MMV007839) (Av 1hr): -0.5786
Gluconate log2 ratio (+MMV007839/-MMV007839) (Av 1hr): 0.1947
Glucose-6-Phosphate log2 ratio (+MMV007839/-MMV007839) (Av 1hr): -0.1863
Glutamate log2 ratio (+MMV007839/-MMV007839) (Av 1hr): 0.1005
Glutamine log2 ratio (+MMV007839/-MMV007839) (Av 1hr): 0.7703
Glutathione disulfide log2 ratio (+MMV007839/-MMV007839) (Av 1hr): 0.1943
Glutathione log2 ratio (+MMV007839/-MMV007839) (Av 1hr): -0.1919
Glyceraldehyde 3-phosphate log2 ratio (+MMV007839/-MMV007839) (Av 1hr): -0.7606
Glycerone phosphate log2 ratio (+MMV007839/-MMV007839) (Av 1hr): 0.5926
HLD log2 ratio (+MMV007839/-MMV007839) (Av 1hr): -0.3486
HVDD log2 ratio (+MMV007839/-MMV007839) (Av 1hr): -0.6691
Histidine log2 ratio (+MMV007839/-MMV007839) (Av 1hr): 0.5758
Homoserine log2 ratio (+MMV007839/-MMV007839) (Av 1hr): 0.3097
Hydroxy-L-proline log2 ratio (+MMV007839/-MMV007839) (Av 1hr): 0.2443
Hypoxanthine log2 ratio (+MMV007839/-MMV007839) (Av 1hr): 0.3704
IDP log2 ratio (+MMV007839/-MMV007839) (Av 1hr): -0.1758
IMP log2 ratio (+MMV007839/-MMV007839) (Av 1hr): -0.02277
Inosine log2 ratio (+MMV007839/-MMV007839) (Av 1hr): 0.5137
Isoleucine log2 ratio (+MMV007839/-MMV007839) (Av 1hr): 0.3056
LD log2 ratio (+MMV007839/-MMV007839) (Av 1hr): 0.3825
Lactate log2 ratio (+MMV007839/-MMV007839) (Av 1hr): 2.358
Leucine log2 ratio (+MMV007839/-MMV007839) (Av 1hr): 0.1553
Lysine log2 ratio (+MMV007839/-MMV007839) (Av 1hr): 1.68
Malate log2 ratio (+MMV007839/-MMV007839) (Av 1hr): 0.1358
Mannitol log2 ratio (+MMV007839/-MMV007839) (Av 1hr): 0.0108
Methionine log2 ratio (+MMV007839/-MMV007839) (Av 1hr): 0.2615
Myristic acid log2 ratio (+MMV007839/-MMV007839) (Av 1hr): 0.2261
N-Acetyl-glutamate log2 ratio (+MMV007839/-MMV007839) (Av 1hr): -0.007377
N-Carbamoyl-L-aspartate log2 ratio (+MMV007839/-MMV007839) (Av 1hr): -1.378
NAD+ log2 ratio (+MMV007839/-MMV007839) (Av 1hr): 0.03204
NADH log2 ratio (+MMV007839/-MMV007839) (Av 1hr): -1.36
NADP+ log2 ratio (+MMV007839/-MMV007839) (Av 1hr): -0.2617
Octoluse Bisphosphate log2 ratio (+MMV007839/-MMV007839) (Av 1hr): 1.912
Ornithine log2 ratio (+MMV007839/-MMV007839) (Av 1hr): 0.2172
Orotate log2 ratio (+MMV007839/-MMV007839) (Av 1hr): -1.216
Orotidine 5-phosphate log2 ratio (+MMV007839/-MMV007839) (Av 1hr): -1.5
Orotidine log2 ratio (+MMV007839/-MMV007839) (Av 1hr): -0.4366
PAEF log2 ratio (+MMV007839/-MMV007839) (Av 1hr): -0.4364
PAVH log2 ratio (+MMV007839/-MMV007839) (Av 1hr): -1.011
PD log2 ratio (+MMV007839/-MMV007839) (Av 1hr): 0.2765
PDAV log2 ratio (+MMV007839/-MMV007839) (Av 1hr): 0.344
PE log2 ratio (+MMV007839/-MMV007839) (Av 1hr): 1.21
PEE log2 ratio (+MMV007839/-MMV007839) (Av 1hr): 0.2418
PHF log2 ratio (+MMV007839/-MMV007839) (Av 1hr): 1.069
PPVQ log2 ratio (+MMV007839/-MMV007839) (Av 1hr): 0.02129
PVNF log2 ratio (+MMV007839/-MMV007839) (Av 1hr): -0.3384
PVQ log2 ratio (+MMV007839/-MMV007839) (Av 1hr): 0.8749
PVQA log2 ratio (+MMV007839/-MMV007839) (Av 1hr): -0.7385
Pantothenate log2 ratio (+MMV007839/-MMV007839) (Av 1hr): -0.01312
Phenylalanine log2 ratio (+MMV007839/-MMV007839) (Av 1hr): 0.1979
Phosphoenolpyruvate log2 ratio (+MMV007839/-MMV007839) (Av 1hr): 0.299
Pipecolate log2 ratio (+MMV007839/-MMV007839) (Av 1hr): 0.4539
Proline log2 ratio (+MMV007839/-MMV007839) (Av 1hr): 0.1646
Pyridoxine log2 ratio (+MMV007839/-MMV007839) (Av 1hr): 0.1656
Pyruvate log2 ratio (+MMV007839/-MMV007839) (Av 1hr): 1.42
Ribose-5-phosphate log2 ratio (+MMV007839/-MMV007839) (Av 1hr): 0.9115
S-Adenosyl-L-homocysteine log2 ratio (+MMV007839/-MMV007839) (Av 1hr): -0.1282
SDGLA log2 ratio (+MMV007839/-MMV007839) (Av 1hr): -0.148
SFGD log2 ratio (+MMV007839/-MMV007839) (Av 1hr): -0.0354
Sedoheptoluse bisphosphate log2 ratio (+MMV007839/-MMV007839) (Av 1hr): 0.6095
Sedoheptulose-1/7-phosphate log2 ratio (+MMV007839/-MMV007839) (Av 1hr): 0.1578
Serine log2 ratio (+MMV007839/-MMV007839) (Av 1hr): 0.004434
Succinate log2 ratio (+MMV007839/-MMV007839) (Av 1hr): 0.4975
Succinate semialdehyde log2 ratio (+MMV007839/-MMV007839) (Av 1hr): -0.3802
TNVK log2 ratio (+MMV007839/-MMV007839) (Av 1hr): -0.9736
Threonine log2 ratio (+MMV007839/-MMV007839) (Av 1hr): 0.4202
Tryptophan log2 ratio (+MMV007839/-MMV007839) (Av 1hr): 0.09509
Tyrosine log2 ratio (+MMV007839/-MMV007839) (Av 1hr): 0.1697
UDP log2 ratio (+MMV007839/-MMV007839) (Av 1hr): -0.1565
UDP-N-acetyl-D-glucosamine log2 ratio (+MMV007839/-MMV007839) (Av 1hr): 0.0845
UDP-glucose log2 ratio (+MMV007839/-MMV007839) (Av 1hr): -0.08513
UMP log2 ratio (+MMV007839/-MMV007839) (Av 1hr): -0.3602
Uracil log2 ratio (+MMV007839/-MMV007839) (Av 1hr): -0.4869
Uric Acid log2 ratio (+MMV007839/-MMV007839) (Av 1hr): 0.02649
VD log2 ratio (+MMV007839/-MMV007839) (Av 1hr): 1.818
Valine log2 ratio (+MMV007839/-MMV007839) (Av 1hr): 0.1364
Xanthine log2 ratio (+MMV007839/-MMV007839) (Av 1hr): 0.3309
dADP log2 ratio (+MMV007839/-MMV007839) (Av 1hr): -0.3244
dATP log2 ratio (+MMV007839/-MMV007839) (Av 1hr): 0.05147
dCDP log2 ratio (+MMV007839/-MMV007839) (Av 1hr): 0.3024
dGMP log2 ratio (+MMV007839/-MMV007839) (Av 1hr): 0.08489
dTMP log2 ratio (+MMV007839/-MMV007839) (Av 1hr): -0.02247
dTTP log2 ratio (+MMV007839/-MMV007839) (Av 1hr): 0.2046
dUMP log2 ratio (+MMV007839/-MMV007839) (Av 1hr): 1.26
myo-Inositol log2 ratio (+MMV007839/-MMV007839) (Av 1hr): -0.07002
sn-Glycerol 3-phosphate log2 ratio (+MMV007839/-MMV007839) (Av 1hr): 1.379
sn-glycero-3-Phospho-1-inositol log2 ratio (+MMV007839/-MMV007839) (Av 1hr): -0.128
Hexose-phosphate log2 ratio (+MMV007839/-MMV007839) (Av 1hr, medRt 15.0954): -0.2585
6-Phospho-D-gluconate log2 ratio (+MMV007839/-MMV007839) (Av 1hr, medRt 16.8944): -0.386
Hexose-phosphate log2 ratio (+MMV007839/-MMV007839) (Av 1hr, medRt 17.0788): -1.607
6-Phospho-D-gluconate log2 ratio (+MMV007839/-MMV007839) (Av 1hr, medRt 17.4636): -0.04985
1-3 (2-3)-diphopshateglycerate log2 ratio (+MMV007839/-MMV007839) (Av 3hr): 0.8355
